Test results from patent US20140187470A1 (Synergy Pharmaceuticals Inc., priority 2013, published 2014).
Values belong to the compound of their own block, whether it stands above or below them. Where a SMILES comes first, the peptide text is derived from it. Bridges are numbered along the chain shown (N, C = ends).

Key:
GC-C receptors = molecular target: T1, GC-C receptors (Homo sapiens, UniProt P25092); test: Cyclic GMP stimulation assay in CaCo-2 cells; format: cell-based; details: CaCo-2 monolayers; for Effect of PDE inhibitor on stimulation of cGMP production by SP-304: in combination with SP-304, 30 minutes
T1 construct: Fully differentiated CaCo-2 cells are known to express high density of GC-C receptors; host or cells: CaCo-2 human colon carcinoma cells, differentiated monolayers
Method: (§1) CaCo-2 cell culture: CaCo-2, human colon carcinoma cells, were obtained from American Type Culture Collection (ATCC) and cultured in DMEM medium containing 10% fetal bovine serum, 1% penicillin-streptomycin, 2 mM L-glutamine, 1% non-essential-amino acids. Cells were fed fresh medium every third day and grown for 16-21 days to form completely differentiated monolayer. Fully differentiated CaCo-2 cells are known to express high density of GC-C receptors.
Cyclic GMP stimulation assay: Biological activity of the GCRA peptides was assayed as previously reported (5). Briefly, 16 days grown monolayers of CaCo-2 cells in 24-well plates were washed twice with 250 μl of DMEM containing 50 mM HEPES (pH 7.4), pre-incubated at 37° C. for 10 min with 250 μl of DMEM containing 50 mM HEPES (pH 7.4) and 1 mM isobutylmethylxanthine (IBMX), followed by incubation with GCRA peptides (0.1 nM to 10 μM) for 30 min. The medium was aspirated, and the reaction was terminated by the addition of 3% perchloric acid. Following centrifugation, and neutralization with 0.1 N NaOH, the supernatant was used directly for measurements of cGMP using an ELISA kit (Caymen Chemical, Ann Arbor, Mich.)
Monolayers were treated 500 μL of serum free DMEM for 30 minutes with either SP-304 alone or in combination with phosphodiesterase inhibitors such as, 3-isobutyl-1-methylxanthine (IBMX), sulindac sulfone (SS) and zaprinast (ZAP). After the incubation, monolayers were lysed with 250 μL of 3% perchloric acid. The lysate was neutralized with 0.1 N NaOH and used for ELISA to determine the concentration of cGMP. The assay procedure was essentially the same as described (5). […] Since CaCo-2 cells overexpress phosphodiesterases (PDE), GC-C agonists are used in combination with PDE inhibitors to measure the actual stimulatory effect of GC-C agonists.

[1] = In vitro proteolytic stability using simulated intestinal fluid (SIF) digestion, HPLC analysis; format: in vitro ADME
Method: FIG. 2B is a schematic representation of the results of HPLC chromatographic analyses of SP304 samples after incubation with (A) heat inactivated SIF for 300 min or with (B) SIF for 120 min. […] Arrows indicate the position of SP-304.
Arrow indicates the elution position of SP-304 peptide. […] These new peptide peaks represent the possible degradation products of SP-304.
Arrow indicates the elution position of SP-332 peptide.
Arrows indicate the elution position of SP-333.
The stability of the GRCA peptide is also evaluated against digestion with simulated intestinal fluid (SIF). SIF solution was prepared by the method as described in the United States Pharmacopoeia, 24th edition, p2236. The recipe to prepare SIF solution is as described below. The SIF solution contains NaCl (2.05 g/liter; Sigma), KH2PO4 (0.6 g/liter; Sigma), CaCl2 (0.11 g/liter), KCl (0.37 g/liter; Sigma), and Pacreatin 10 mg/ml. The pH is adjusted to 6 and the solution is filter sterilized. A solution of SP-304 (8.5 mg/ml) is incubated in […] at 37° C. for 0, 30, 60, 90, 120, 150 and 300 min in triplicate aliquots. Following incubations, samples are removed and snap frozen with dry ice and stored in a −80° C. freezer until they are assayed in duplicate. F
The integrity of GRCA peptide is evaluated by HPLC by essentially using the method described for SGF digestion.

[2] = system: patients with chronic idiopathic constipation (CIC); test: Plecanatide Phase IIb/III trial in patients with chronic idiopathic constipation; format: in vivo, human
Method: The randomized, double-blind, placebo-controlled, repeat-dose, dose-ranging study was designed to determine whether plecanatide could increase the number of complete spontaneous bowel movements (CSBM's) and impact other parameters such as stool consistency, straining and time to first bowel movement in patients with CIC. The 12-week study, which included 951 CIC patients at 113 clinical sites in the United States, evaluated 3 doses of plecanatide (0.3, 1.0, 3.0 mg) plus a placebo arm.

CaCo-2 cells = test: 3H-taurocholate (bile acid) absorption by CaCo-2 monolayer; format: cell-based, human; details: for Absorption of 3H-taurocholate (kinetics experiment): 16-day grown CaCo-2 monolayers, up to 60 minutes incubation; for Absorption of 3H-taurocholate (kinetics experiment) / Absorption of 3H-taurocholate (bar graph experiment): 30 minutes pre-incubation; for Absorption of 3H-taurocholate (bar graph experiment): CaCo-2 cells grown for 20 days, 60 minutes incubation, quadruplets
Method: as §1
Preparation of ^3H-taurocholate Cocktail: Phosphatidyl choline was dissolved in ethanol to make 50 mM stock solution. Calculated volume of the stock solution of phosphatidyl choline was mixed with 3H-taurocholate in a plastic tube and dried under argon gas at 80° C. The dried material was dissolved in transport buffer to get the final concentration of phosphatidyl choline (0.5 mM) and of 3H-taurocholate 10 μCi/mL.
CaCo-2 cells were grown in 24-well plates for 16 days to allow complete monolayer formation and cell differentiation. Completely differentiated monolayers were then pre-incubated with 250 μL of the transport buffer (HEPES 25 mM, NaCl 120 mM, KCl 5.4 mM, CaCl2 1.8 mM and MgSO4, pH 7.5) containing either SP-304 alone or in combination with PDE inhibitors such as IBMX, SS and ZAP. The monolayers were pre-incubated with transport buffer containing either of the following: vehicle (control), 1 mM 8-bromo-cGMP, 500 μM SS, 500 μM ZAP, 1 μM SP-304, 0.1 μM SP-304+500 μM SS and 1 μM SP-304+500 μM ZAP. After the indicated pre-incubation time, 50 μL of ^3H-taurocholate (1 μCi) cocktail was added and cells were incubated for an additional 60 minutes, washed three times with ice cold PBS. Cells were lysed with 0.5 N NaOH for 4 hours and radioactivity in the lysate was counted in a scintillation counter.
16-day grown monolayers of CaCo-2 cells in 24-well plates were pre-incubated with transport buffer containing the compounds as indicated in the figure for 30 minutes. After the pre-incubation, 1 μCi of ^3H-taurocholate cocktail was added in each well and cells were further incubated for 60 minutes. Cells were washed three times with ice cold PBS and lysed with 0.5 N NaOH and lysates were counted for radioactivity in a scintillation counter. Results are expressed as an average of three determinations. Results on the x-axis were plotted in logarithmic scale.
After the pre-incubation, 1 μCi of ^3H-taurocholate cocktail was added in each well and cells were further incubated for 60 minutes. Cells were washed three times with ice cold PBS and lysed with 0.5 N NaOH and lysates were counted for radioactivity in a scintillation counter. This experiment was run in quadruplets and results are expressed as mean±SD.
The procedure used in this experiment was essentially the same except that a lower concentration of ZAP (250 μM) in combination experiments with SP-304.

animal models = test: Animal models, oral administration of plecanatide; format: in vivo
[3] = In vitro proteolytic stability using simulated gastric fluid (SGF) digestion, HPLC analysis; format: in vitro ADME; details: 0 min vs 120 min, HPLC (FIG. 1B)
Method: FIG. 1B is a schematic representation of the results of HPLC chromatographic analyses of SP-304 samples after incubation with SGF at indicated times (0 min in the upper panel and 120 min in the lower panel). […] The arrows indicate the elution position of SP-304.
The stability of the GRCA peptide according to the invention is determined in the presence of simulated gastric fluid (SGF). GRCA peptide (final concentration of 8.5 mg/ml) is incubated in SGF (Proteose peptone (8.3 g/liter; Difco), D-Glucose (3.5 g/liter; Sigma), NaCl (2.05 g/liter; Sigma), KH2PO4 (0.6 g/liter; Sigma), CaCl2 (0.11 g/liter), KCl (0.37 g/liter; Sigma), Porcine bile (final 1× concentration 0.05 g/liter; Sigma) in PBS, Lysozyme (final 1× concentration 0.10 g/liter; Sigma) in PBS, Pepsin (final 1× concentration 0.0133 g/liter; Sigma) in PBS). SGF is made on the day of the experiment and the pH is adjusted to 2.0±0.1 using HCl or NaOH as necessary. After the pH adjustment, SGF is sterilized filtered with 0.22 μm membrane filters. SP-304 (final concentration of 8.5 mg/ml) is incubated in SGF at 37° C. for 0, 15, 30, 45, 60 and 120 min in triplicate aliquots. Following incubations, samples are snap frozen in dry ice then are stored in a −80° C. freezer until they are assayed in duplicate.

[4] = simulated gastric fluid (SGF) with Pepsin (0.0133 g/liter), Lysozyme, Porcine bile, pH 2.0±0.1; details: 37° C., up to 120 min
[5] = Phase IIb/III clinical study, oral, CIC

T1 sequence (P25092 24-1073): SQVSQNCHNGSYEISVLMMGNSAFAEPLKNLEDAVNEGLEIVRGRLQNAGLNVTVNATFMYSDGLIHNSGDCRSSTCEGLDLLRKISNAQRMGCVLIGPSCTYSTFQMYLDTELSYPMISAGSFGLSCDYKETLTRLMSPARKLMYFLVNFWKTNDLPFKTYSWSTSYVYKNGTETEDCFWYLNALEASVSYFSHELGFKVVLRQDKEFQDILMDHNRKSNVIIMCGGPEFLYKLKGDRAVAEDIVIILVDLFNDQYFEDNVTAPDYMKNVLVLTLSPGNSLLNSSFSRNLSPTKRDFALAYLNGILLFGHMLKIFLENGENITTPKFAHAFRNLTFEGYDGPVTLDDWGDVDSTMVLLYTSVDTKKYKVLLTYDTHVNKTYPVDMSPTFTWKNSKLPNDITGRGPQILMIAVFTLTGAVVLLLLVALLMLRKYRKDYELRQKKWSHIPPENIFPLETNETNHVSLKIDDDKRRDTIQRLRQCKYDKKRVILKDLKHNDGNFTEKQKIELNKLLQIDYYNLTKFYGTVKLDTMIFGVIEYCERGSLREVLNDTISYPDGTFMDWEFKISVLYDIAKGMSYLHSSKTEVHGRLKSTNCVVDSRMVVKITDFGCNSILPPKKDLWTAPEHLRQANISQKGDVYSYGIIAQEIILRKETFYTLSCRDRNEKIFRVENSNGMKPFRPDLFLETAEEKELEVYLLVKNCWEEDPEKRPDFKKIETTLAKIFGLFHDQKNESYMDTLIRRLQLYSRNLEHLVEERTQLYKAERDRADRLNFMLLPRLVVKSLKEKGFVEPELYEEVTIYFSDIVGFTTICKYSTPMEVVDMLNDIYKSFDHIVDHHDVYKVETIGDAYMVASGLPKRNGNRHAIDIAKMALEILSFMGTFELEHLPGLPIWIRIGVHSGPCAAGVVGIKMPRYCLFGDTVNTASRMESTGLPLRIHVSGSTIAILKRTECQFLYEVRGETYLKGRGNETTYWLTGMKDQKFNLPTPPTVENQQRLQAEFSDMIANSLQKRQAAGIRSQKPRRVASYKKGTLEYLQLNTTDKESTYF

Effect of PDE inhibitor on stimulation of cGMP production by SP-304 (GC-C receptors): synergistic effects
Compound: CC(C)Cn1c(=O)n(C)c(=O)c2[nH]cnc21 [IBMX, 3-isobutyl-1-methylxanthine]

cGMP production by CaCo-2 cells in response to stimulation (GC-C receptors; 30 minutes): produced cGMP
HPLC peak after incubation with SIF for 60 min ([1]; 0 vs 60 min, HPLC (FIG. 7D)): completely vanished
HPLC major peak after incubation with SGF [3]: resistant to SGF digestion
Compound: CC(C)C[C@H](NC(=O)[C@@H]1CSSC[C@@H]2NC(=O)[C@H](CC(C)C)NC(=O)[C@H](CCC(=O)O)NC(=O)[C@@H](NC(=O)[C@H](CCC(=O)O)NC(=O)[C@H](CC(=O)O)NC(=O)[C@@H](N)CC(N)=O)CSSC[C@H](NC(=O)[C@H](C)NC(=O)[C@H](C(C)C)NC(=O)[C@H](CC(N)=O)NC(=O)[C@H](C(C)C)NC2=O)C(=O)N[C@@H]([C@@H](C)O)C(=O)NCC(=O)N1)C(=O)O [SP-304, Asn^1-Asp^2-Glu^3-Cys^4-Glu^5-Leu^6-Cys^7-Val^8-Asn^9-Val^10-Ala^11-Cys^12-Thr^13-Gly^14-Cys^15-Leu^16] (H-NDECELCVNVACTGCL-OH; disulfide 4-12, 7-15; N-terminus assumed)
HPLC peak after incubation with SIF for 120 min ([1]; 120 min, HPLC (FIG. 2B, 7E, 7F)): completely converted SP-304 into another peptide
Overall responder rate ([2]; 3 mg dose, 12-week treatment, CIC patients (placebo 10.7%), p=0.009): 19%
Mean increase in CSBMs over the 12-week treatment period ([2]; 3 mg dose, CIC patients, p<0.001): 2.13
Incidence of diarrhea ([2]; 3 mg, CIC patients (placebo incidence 1.3%)): 9.7%
Key secondary endpoints ([2]; Phase IIb/III clinical study, CIC patients): statistically significant improvements
Primary and key secondary endpoints of the study [2, 5]: met the primary and key secondary endpoints
Tolerability [2, 5]: well tolerated
Absorption of 3H-taurocholate (kinetics experiment) (CaCo-2 cells): inhibited
Absorption of 3H-taurocholate (bar graph experiment) (CaCo-2 cells): inhibited
Inhibition in absorption of 3H-taurocholate, SP-304 alone (CaCo-2 cells; SP-304 0.1 μM alone): did not produce much inhibition
Inhibition of 3H-taurocholate absorption, SP-304 in combination with ZAP (CaCo-2 cells; SP-304 0.1 μM in combination with ZAP (250 μM)): greater effect on inhibition
GI inflammation (animal models): ameliorates GI inflammation
Intestinal secretion (animal models): promotes intestinal secretion

Effect of PDE inhibitor on stimulation of cGMP production by SP-304 (GC-C receptors): synergistic effects
Compound: CC1=C(CC(=O)O)c2cc(F)ccc2/C1=C\c1ccc(S(C)(=O)=O)cc1 [SS, sulindac sulfone]

Production of cGMP among the PDE inhibitors (GC-C receptors; in combination with SP-304): maximum production of cGMP
Effect of PDE inhibitor on stimulation of cGMP production by SP-304 (GC-C receptors): synergistic effects
Compound: CCCOc1ccccc1-c1nc2nn[nH]c2c(=O)[nH]1 [ZAP, zaprinast]

not cleaved [4]: major peak did not change after 120 min
Compound: Asn^1-Asp^2-Glu^3-Cys^4-Glu^5-Leu^6-Cys^7-Val^8-Asn^9-Val^10-Ala^11-Cys^12-Thr^13-Gly^14-Cys^15-Leu^16

Compound: Nc1nc2c(nc(Br)n2[C@@H]2O[C@@H]3COP(=O)(O)O[C@H]3[C@H]2O)c(=O)[nH]1 [8-Br-cGMP, 8-bromo-cGMP, reference compound]
Absorption of 3H-taurocholate (kinetics experiment) (CaCo-2 cells): inhibited
Absorption of 3H-taurocholate (bar graph experiment) (CaCo-2 cells): inhibited
